Test results as given in patent publication US20260226071A1, “2, 4-DIANILINOPYRIMIDINE-BASED AURORA-A KINASE SELECTIVE DEGRADATION INDUCING COMPOUNDS” (UPPTHERA, INC., priority 2023, published 2026).

Key:
NCI-H446 cell line = assay: Cell viability assay for NCI-H446 cell line; assay type: cell-based; conditions: Homo sapiens, NCI-H446, 120 h; H446 cells, 5 days culture, EZ-Cytox; read-out: IC50 value (Level)
Source text: The NCI-H446 (hereafter H446) cell lines were provided from American Type Culture Collection (ATCC). For cell culture, RPMI medium 1640 (Gibco, Cat. No. 22400-089; Lot. No. 2522717), FBS (Gibco, Cat. No. 16000-044; Lot. No. 2716756P), Penicillin/Streptomycin (PS) (Gibco, Cat. No. 15140-122; Lot. No. 2585636), 75T cell culture flask (SPL, Cat. No. 70075), 96 well cell culture plate (SPL, Cat. No. 30096), PBS pH 7.4 (Gibco, Cat. No. 10010-023; Lot. No. 2561466), TrypLE™ Express (Gibco, Cat. No. 12605-010; Lot. No. 2492811), counting chamber (hematocytometer) (Hirschmann, Cat. No. 8100204) and 0.4% Trypan Blue solution (DYNEBIO, Cat. No. CBT3710; Lot. No. 20231017) were used. Cells were cultured in RPMI 1640 medium supplemented with 10% FBS and 1% PS and incubated at 37° C., 5% CO2 condition in CO2 incubator (ThermoScientific, Cat. No. 4111).
For experiment, the present compounds were fully dissolved in DMSO (Sigma-Aldrich Cat. No. D2438, Lot. No. RNBL7287.
In each well of 96-well cell culture plate, […] cells of H446 cell lines were seeded in 150 μl of total medium volume. After 24 hours of cell seeding, the present compounds were treated.
The present compounds were each diluted 3-folds from the highest concentration of 1000 nM to the lowest concentration of 0.15 nM. The compound was added to each well to make the total volume of […] and the cells were cultured for 5 days in CO2 incubator (Thermo Fisher Science, Cat. No. 4111).
Thereafter, 20 μl of EZ-Cytox (DOGEN, Cat. NO. EZ-3000, Lot. No. DLS2308) was added to each well and the cells were cultured for 4 hours at the same condition in CO2 incubator. After culture, the absorbance of the sample was measured by setting the wavelength of a plate reader (BMG Labtech, CLARIOstar Plus) to […]. The samples were shaked for 2 minutes in the plate reader before measurement.

Aurora kinase A (AURKA) = target: T1, Aurora kinase A (AURKA) (Homo sapiens, UniProt O14965); assay: Luciferase assay for AURKA in HeLa LgBit (AURKA-HiBit KI) cell line; assay type: cell-based; conditions: HeLa LgBit (AURKA-HiBit KI) cells, measured after 12 hours
T1 construct: endogenous in cells; host or cells: HeLa LgBit (AURKA-HiBit KI), CRISPR/Cas9 knock-in at the endogenous AURKA locus
T1 sequence (O14965 1-403): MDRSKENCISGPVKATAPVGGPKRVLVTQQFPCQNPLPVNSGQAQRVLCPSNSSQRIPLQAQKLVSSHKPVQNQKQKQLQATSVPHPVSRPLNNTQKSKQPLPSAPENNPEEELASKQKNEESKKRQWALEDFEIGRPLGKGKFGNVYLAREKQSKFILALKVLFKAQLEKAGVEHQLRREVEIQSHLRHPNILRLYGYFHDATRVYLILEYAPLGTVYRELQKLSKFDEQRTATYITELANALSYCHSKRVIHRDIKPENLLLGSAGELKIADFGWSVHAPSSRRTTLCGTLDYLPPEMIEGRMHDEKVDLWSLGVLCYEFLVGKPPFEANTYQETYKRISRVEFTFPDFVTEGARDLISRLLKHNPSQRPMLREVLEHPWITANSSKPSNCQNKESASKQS
Summary of the method: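 Test compounds (10 nM or 100 nM) added to AURKA-HiBit knock-in HeLa LgBit cells that had been pre-loaded with Endurazine for 2 h following an 18 h culture at 3×10^4 cells. Endogenous AURKA-HiBit level followed by luminescence (470-480 nm), measured after 12 h.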

| luminescence value (Level) (Aurora kinase A (AURKA); 10 nM compound) | luminescence value (Level) (Aurora kinase A (AURKA); 100 nM compound) | SMILES | IC50 (NCI-H446 cell line) [nM] |
| --- | --- | --- | --- |
| C (C is 0.5 to 0.7) | B (B is 0.2 to 0.4) | CN(c1cccc(N2CCC(CN3CCN(C(=O)Cc4ccc(Nc5ncc(F)c(Nc6ccc(C(=O)Nc7ccccc7Cl)cc6)n5)cc4)CC3)CC2)c1)C1CCC(=O)NC1=O (stereo not drawn) [Compound 45, N-(2-chlorophenyl)-4-((2-((4-(2-(4-((1-(3-((2,6-dioxopiperidin-3-yl)(methyl)amino)phenyl)piperidin-4-yl)methyl)piperazin-1-yl)-2-oxoethyl)phenyl)amino)-5-fluoropyrimidin-4-yl)amino)benzamide] | 50 to 100 |
| A (A is <0.3) | A (A is <0.2) | O=C1CCC(c2ccc(N3CCN(CCC4CCN(NC(=O)c5ccc(Nc6ncc(F)c(Nc7ccc(C(=O)Nc8ccccc8Cl)cc7)n6)cc5)CC4)CC3)c(F)c2)C(=O)N1 (stereo not drawn) [Compound 48, N-(2-chlorophenyl)-4-((2-((4-((4-(2-(4-(4-(2,6-dioxopiperidin-3-yl)-2-fluorophenyl)piperazin-1-yl)ethyl)piperidin-1-yl)carbamoyl)phenyl)amino)-5-fluoropyrimidin-4-yl)amino)benzamide] | < 50 |
| A (A is <0.3) | A (A is <0.2) | CN(CC1CCN(c2ccc(C3CCC(=O)NC3=O)cc2)CC1)[C@H]1CC[C@H](NC(=O)c2ccc(Nc3ncc(F)c(Nc4ccc(C(=O)Nc5ccccc5Cl)cc4)n3)cc2)CC1 (stereo partly drawn) [Compound 49, N-(2-chlorophenyl)-4-((2-((4-(((1r,4r)-4-(((1-(4-(2,6-dioxopiperidin-3-yl)phenyl)piperidin-4-yl)methyl)(methyl)amino)cyclohexyl)carbamoyl)phenyl)amino)-5-fluoropyrimidin-4-yl)amino)benzamide] | < 50 |
| B (B is 0.3 to 0.5) | A (A is <0.2) | O=C1CCC(c2ccc(N3CCC(CN4CCC(NC(=O)c5ccc(Nc6ncc(F)c(Nc7ccc(C(=O)Nc8ccccc8Cl)cc7)n6)cc5)CC4)CC3)cc2)C(=O)N1 (stereo not drawn) [Compound 50, N-(2-chlorophenyl)-4-[[2-[4-[[1-[[1-[4-(2,6-dioxo-3-piperidyl)phenyl]-4-piperidyl]methyl]-4-piperidyl]carbamoyl]anilino]-5-fluoro-pyrimidin-4-yl]amino]benzamide] | 50 to 100 |
| A (A is <0.3) | A (A is <0.2) | O=C1CCC(c2ccc(N3CCN(C(=O)CN4CCC(NC(=O)c5ccc(Nc6ncc(F)c(Nc7ccc(C(=O)Nc8ccccc8Cl)cc7)n6)cc5)CC4)CC3)cc2)C(=O)N1 (stereo not drawn) [Compound 51, N-(2-chlorophenyl)-4-((2-((4-((1-(2-(4-(4-(2,6-dioxopiperidin-3-yl)phenyl)piperazin-1-yl)-2-oxoethyl)piperidin-4-yl)carbamoyl)phenyl)amino)-5-fluoropyrimidin-4-yl)amino)benzamide] | < 50 |
| A (A is <0.3) | A (A is <0.2) | O=C1CCC(c2ccc(N3CCN(CCCC4CCN(NC(=O)c5ccc(Nc6ncc(F)c(Nc7ccc(C(=O)Nc8ccccc8Cl)cc7)n6)cc5)CC4)CC3)cc2)C(=O)N1 (stereo not drawn) [Compound 52, N-(2-chlorophenyl)-4-((2-((4-((4-(3-(4-(4-(2,6-dioxopiperidin-3-yl)phenyl)piperazin-1-yl)propyl)piperidin-1-yl)carbamoyl)phenyl)amino)-5-fluoropyrimidin-4-yl)amino)benzamide] | < 50 |
| B (B is 0.3 to 0.5) | A (A is <0.2) | O=C1CCC(c2ccc(N3CCN(CCC4CCN(C(=O)Nc5ccc(Nc6ncc(F)c(Nc7ccc(C(=O)Nc8ccccc8Cl)cc7)n6)cc5)CC4)CC3)cc2)C(=O)N1 (stereo not drawn) [Compound 53, N-(4-((4-((4-((2-chlorophenyl)carbamoyl)phenyl)amino)-5-fluoropyrimidin-2-yl)amino)phenyl)-4-(2-(4-(4-(2,6-dioxopiperidin-3-yl)phenyl)piperazin-1-yl)ethyl)piperidine-1-carboxamide] | < 50 |
| A (A is <0.3) | A (A is <0.2) | O=C1CCC(Nc2ccc(N3CCN(CCC4CCN(NC(=O)c5ccc(Nc6ncc(F)c(Nc7ccc(C(=O)Nc8ccccc8Cl)cc7)n6)cc5)CC4)CC3)c(F)c2)C(=O)N1 (stereo not drawn) [Compound 55, N-(2-chlorophenyl)-4-((2-((4-((4-(2-(4-(4-((2,6-dioxopiperidin-3-yl)amino)-2-fluorophenyl)piperazin-1-yl)ethyl)piperidin-1-yl)carbamoyl)phenyl)amino)-5-fluoropyrimidin-4-yl)amino)benzamide] | < 50 |
| A (A is <0.3) | A (A is <0.2) | O=C1CCC(c2ccc(N3CCN(CCC4CCN(NC(=O)c5ccc(Nc6ncc(F)c(Nc7ccc(C(=O)Nc8ccccc8Cl)cc7)n6)cc5)CC4)CC3)nc2)C(=O)N1 (stereo not drawn) [Compound 56, N-(2-chlorophenyl)-4-[[2-[4-[[4-[2-[4-[5-(2,6-dioxo-3-piperidyl)-2-pyridyl]piperazin-1-yl]ethyl]-1-piperidyl]carbamoyl]anilino]-5-fluoro-pyrimidin-4-yl]amino]benzamide] | < 50 |
| A (A is <0.3) | A (A is <0.2) | O=C1CCC(c2ccc(N3CCN(CCC4CCN(NC(=O)c5ccc(Nc6ncc(F)c(Nc7ccccc7Cl)n6)cc5)CC4)CC3)cc2)C(=O)N1 (stereo not drawn) [Compound 57, 4-((4-((2-chlorophenyl)amino)-5-fluoropyrimidin-2-yl)amino)-N-(4-(2-(4-(4-(2,6-dioxopiperidin-3-yl)phenyl)piperazin-1-yl)ethyl)piperidin-1-yl)benzamide] | 100 to 150 |
| A (A is <0.3) | A (A is <0.2) | O=C1CCC(c2ccc(N3CCN(CCC4CCN(NC(=O)c5ccc(Nc6ncc(F)c(Nc7ccccc7)n6)cc5)CC4)CC3)cc2)C(=O)N1 (stereo not drawn) [Compound 58, N-(4-(2-(4-(4-(2,6-dioxopiperidin-3-yl)phenyl)piperazin-1-yl)ethyl)piperidin-1-yl)-4-((5-fluoro-4-(phenylamino)pyrimidin-2-yl)amino)benzamide] | < 50 |
| A (A is <0.3) | A (A is <0.2) | C[C@H](CN1CCN(c2ccc(C3CCC(=O)NC3=O)cc2)CC1)C1CCN(NC(=O)c2ccc(Nc3ncc(F)c(Nc4ccc(C(=O)Nc5ccccc5Cl)cc4)n3)cc2)CC1 (stereo partly drawn) [Compound 63, N-(2-chlorophenyl)-4-((2-((4-((4-((2S)-1-(4-(4-(2,6-dioxopiperidin-3-yl)phenyl)piperazin-1-yl)propan-2-yl)piperidin-1-yl)carbamoyl)phenyl)amino)-5-fluoropyrimidin-4-yl)amino)benzamide] | < 50 |
| B (B is 0.3 to 0.5) | A (A is <0.2) | O=C1CCC(c2ccc(N3CCN(CCN4CC(NC(=O)c5ccc(Nc6ncc(F)c(Nc7ccc(C(=O)Nc8ccccc8Cl)cc7)n6)cc5)C4)CC3)cc2)C(=O)N1 (stereo not drawn) [Compound 65, N-(2-chlorophenyl)-4-((2-((4-((1-(2-(4-(4-(2,6-dioxopiperidin-3-yl)phenyl)piperazin-1-yl)ethyl)azetidin-3-yl)carbamoyl)phenyl)amino)-5-fluoropyrimidin-4-yl)amino) benzamide] | 50 to 100 |
